Broadly, the IC50 is the concentration that gives 50% inhibition. A lower IC50 goes with higher potency.

The text below walks through data of ChEMBL document CHEMBL6087405, “Discovery and optimization of anthraquinone derivatives containing substituted bisbenzyloxy groups as a novel scaffold damaged endoplasmic reticulum and against hepatocellular carcinoma cells” (Bioorg Med Chem, 2024).

The test system of experiment [1] is A549. Put plainly: Antiproliferative activity against human A549 cells measured after 48 hrs by MTT assay. Type of experiment: functional, cell-based. The following applies: A549, 48 h.
Experiment [2] has as its system MDA-MB-231. Description: Antiproliferative activity against human MDA-MB-231 cells measured after 48 hrs by MTT assay. Type of experiment: functional, cell-based. The conditions noted are these: MDA-MB-231, 48 h. In general terms: Formazan colour is commonly taken as a measure of viable cells.
For experiment [3], the system named is Huh-7. Description: Antiproliferative activity against human Huh-7 cells measured after 48 hrs by MTT assay. Type of experiment: functional, cell-based. The following applies: Huh-7, 48 h.
The subject of experiment [4] is Huh-7. Description: Induction of apoptosis in human Huh-7 cells assessed as viable cells at 20 uM measured after 48 hrs by Annexin V-PE staining based flow cytometry analysis (reference value: 93.69%). Type of experiment: functional. The following applies: read-out: Activity. On the technique in general: Flow cytometry measures light scatter and fluorescence of single cells or particles in a stream.

Experiment [5] concerns Huh-7. Description: Induction of apoptosis in human Huh-7 cells assessed as late apoptotic cells at 20 uM measured after 48 hrs by Annexin V-PE staining based flow cytometry analysis (reference value: 2.06%). Type of experiment: functional.
In experiment [6] the test system is Huh-7. Description: Induction of apoptosis in human Huh-7 cells assessed as early apoptotic cells at 20 uM measured after 48 hrs by Annexin V-PE staining based flow cytometry analysis (reference value: 0.88%). It is filed as functional.
For experiment [7], the system named is Huh-7. Put plainly: Induction of apoptosis in human Huh-7 cells assessed as necrotic cells at 20 uM measured after 48 hrs by Annexin V-PE staining based flow cytometry analysis (reference value: 3.37%). Type of experiment: functional.

Counter-ions that a name gives are not always drawn. Peptide text beside a SMILES is read from it. * marks the point of attachment. Cbz = O=C(OCc1ccccc1)*

Turning to `COc1ccc(COc2cccc3c2C(=O)c2c(OCc4ccc(OC)cc4)cc(C(=O)NCCCCCO)cc2C3=O)cc1`, the results for the concentration for half-maximal inhibition (IC50) in experiment [1], in experiment [2] and in experiment [3] were 5 µM, 2.84 µM and 4.14 µM, respectively.

For the compound `COc1ccc(COc2cccc3c2C(=O)c2c(OCc4ccc(OC)cc4)cc(C(=O)NCCCCCCO)cc2C3=O)cc1`, the half-inhibitory concentration (IC50) in experiment [1] was 3.49 µM; in experiment [2], 0.97 µM; in experiment [3], 1.13 µM.

Consider `O=C(NCCCO)c1cc(OCc2ccc(Cl)cc2)c2c(c1)C(=O)c1cccc(OCc3ccc(Cl)cc3)c1C2=O`, for which the values for the IC50 in experiment [1], in experiment [2] and in experiment [3] were over 100 µM, 6.36 µM and 5.87 µM, respectively.

For `Cc1ccc(COc2cccc3c2C(=O)c2c(OCc4ccc(C)cc4)cc(C(=O)NCCNCCO)cc2C3=O)cc1`, the IC50 in experiment [1] came to 4.76 µM; in experiment [2], 0.91 µM; in experiment [3], 1.96 µM.

In the case of `O=C(NCCCCO)c1cc(OCc2ccc(Cl)cc2)c2c(c1)C(=O)c1cccc(OCc3ccc(Cl)cc3)c1C2=O`, the 50% inhibitory concentration (IC50) is over 100 µM in experiment [1], 17.5 µM in experiment [2] and 20.9 µM in experiment [3].

Take `CC(C)[C@H](NC(=O)OCc1ccccc1)C(=O)N[C@@H](C)C(=O)N[C@@H](CC(=O)O)C(=O)O` (Cbz-Val-Ala-Asp-OH): in experiment [4], the viability at 20 µM came out at 91.1%. The results for the Activity in experiment [5], in experiment [6] and in experiment [7] were 2.37%, 0.72% and 5.83%, respectively.

`O=C(NCCCCCCO)c1cc(OCc2ccc(Cl)cc2)c2c(c1)C(=O)c1cccc(OCc3ccc(Cl)cc3)c1C2=O`: the IC50 in experiment [1] was over 100 µM; in experiment [2], 5.73 µM; in experiment [3], 36 µM.

Turning to `Cc1ccc(COc2cccc3c2C(=O)c2c(OCc4ccc(C)cc4)cc(C(=O)NCCCCCCO)cc2C3=O)cc1`, the results for the half-inhibitory concentration (IC50) in experiment [1], in experiment [2] and in experiment [3] were 7.81 µM, 2.36 µM and 4.83 µM, respectively.

As for `Cc1ccc(COc2cccc3c2C(=O)c2c(OCc4ccc(C)cc4)cc(C(=O)NCCCCO)cc2C3=O)cc1`, the results for the IC50 in experiment [1], in experiment [2] and in experiment [3] were 3.36 µM, 1.29 µM and 1.98 µM, respectively.

`O=C(NCCNCCO)c1cc(OCc2ccccc2)c2c(c1)C(=O)c1cccc(OCc3ccccc3)c1C2=O`: the IC50 worked out at 5.66 µM in experiment [1], 1.27 µM in experiment [2] and 1.98 µM in experiment [3].

As to `O=C(NCCCCCCO)c1cc(OCc2ccccc2)c2c(c1)C(=O)c1cccc(OCc3ccccc3)c1C2=O`, the IC50 turned out to be 62.5 µM in experiment [1], 2.82 µM in experiment [2] and 8.87 µM in experiment [3].

Turning to `Cc1ccc(COc2cccc3c2C(=O)c2c(OCc4ccc(C)cc4)cc(C(=O)NCCCCCO)cc2C3=O)cc1`, the half-maximal inhibitory concentration (IC50) came to 12.3 µM in experiment [1], 2.48 µM in experiment [2] and 5.08 µM in experiment [3].

The compound `COc1cccc2c1C(=O)c1c(O)c3c(c(O)c1C2=O)C[C@@](O)(C(=O)CO)C[C@@H]3O[C@H]1C[C@H](N)[C@H](O)[C@H](C)O1` [DOXORUBICIN HYDROCHLORIDE] registered an IC50 in experiment [2] of 3.14 µM.

Consider `COc1ccc(COc2cccc3c2C(=O)c2c(OCc4ccc(OC)cc4)cc(C(=O)NCCCCO)cc2C3=O)cc1`, for which the figures for the IC50 in experiment [1], in experiment [2] and in experiment [3] were 5.04 µM, 0.86 µM and 0.34 µM, respectively.

With `O=C(NCCOCCO)c1cc(OCc2ccccc2)c2c(c1)C(=O)c1cccc(OCc3ccccc3)c1C2=O`, the IC50 was over 100 µM in experiment [1], 113 µM in experiment [2] and 64.4 µM in experiment [3].

`O=C(O)c1cc(O)c2c(c1)C(=O)c1cccc(O)c1C2=O` [RHEIN]: the IC50 in experiment [1], in experiment [2] and in experiment [3] was over 100 µM in each case.

With `Cc1ccc(COc2cccc3c2C(=O)c2c(OCc4ccc(C)cc4)cc(C(=O)NCCO)cc2C3=O)cc1`, the 50% inhibitory concentration (IC50) is 13.1 µM in experiment [1], 2.81 µM in experiment [2] and 4.37 µM in experiment [3].

In the case of `Cc1ccc(COc2cccc3c2C(=O)c2c(OCc4ccc(C)cc4)cc(C(=O)NCCCO)cc2C3=O)cc1`, the half-maximal inhibitory concentration (IC50) stood at 5.79 µM in experiment [1], 1.15 µM in experiment [2] and 3.75 µM in experiment [3].

As for `O=C(NCCCCCO)c1cc(OCc2ccc(Cl)cc2)c2c(c1)C(=O)c1cccc(OCc3ccc(Cl)cc3)c1C2=O`, the IC50 in experiment [1] is over 100 µM; in experiment [2], 16 µM; in experiment [3] it was 51 µM.

As for `COc1ccc(COc2cccc3c2C(=O)c2c(OCc4ccc(OC)cc4)cc(C(=O)NCCOCCO)cc2C3=O)cc1`, the IC50 in experiment [1] amounted to 17 µM; in experiment [2] it was 18.5 µM; in experiment [3] it was 9.24 µM.

With `O=C(NCCO)c1cc(OCc2ccc(Cl)cc2)c2c(c1)C(=O)c1cccc(OCc3ccc(Cl)cc3)c1C2=O`, the results for the IC50 in experiment [1], in experiment [2] and in experiment [3] were 21.1 µM, 3.46 µM and 4.79 µM, respectively.

For `COc1ccc(COc2cccc3c2C(=O)c2c(OCc4ccc(OC)cc4)cc(C(=O)NCCCO)cc2C3=O)cc1`, the IC50 in experiment [1] was determined as 3.55 µM; in experiment [2] it was 1.94 µM; in experiment [3] it was 1.69 µM.

With `O=C(NCCNCCO)c1cc(OCc2ccc(Cl)cc2)c2c(c1)C(=O)c1cccc(OCc3ccc(Cl)cc3)c1C2=O`, the IC50 in experiment [1] was over 100 µM; in experiment [2], 2.24 µM; in experiment [3], 40.4 µM.

Consider `Cc1ccc(COc2cccc3c2C(=O)c2c(OCc4ccc(C)cc4)cc(C(=O)NCCOCCO)cc2C3=O)cc1`, for which the results for the IC50 in experiment [1], in experiment [2] and in experiment [3] were over 100 µM, 6.14 µM and 14.9 µM, respectively.

Turning to `COc1ccc(COc2cccc3c2C(=O)c2c(OCc4ccc(OC)cc4)cc(C(=O)NCCO)cc2C3=O)cc1`, the IC50 in experiment [1] amounted to 4.68 µM; in experiment [2] it was 2.45 µM; in experiment [3], 2.71 µM.

Regarding `CNC(=O)c1cc(Oc2ccc(NC(=O)Nc3ccc(Cl)c(C(F)(F)F)c3)cc2)ccn1` [SORAFENIB], 6.53 µM corresponded to half-maximal inhibition in experiment [3] (IC50).

Consider `O=C(NCCOCCO)c1cc(OCc2ccc(Cl)cc2)c2c(c1)C(=O)c1cccc(OCc3ccc(Cl)cc3)c1C2=O`, for which the IC50 in experiment [1] is over 100 µM; in experiment [2], 7.1 µM; in experiment [3], 50.1 µM.
